Experimental data taken from patent US11826467B2, “W/O/W microemulsions for ocular administration” (University of Tennessee Research Foundation, priority 2017, dated 2023).

Legend:
IOP [1] = experiment: Efficacy of other gabapentinoid drugs (IOP, viscous eye drops); assay type: in vivo; conditions: 0.9% drug in 2% HPMC viscous eye drops, C57Bl/6 J mice
Source text: To determine if other members of the gabapentinoid drug family are also efficacious in reducing IOP, we compared the efficacy of 0.9% pregabalin, 0.9% 2-phenylglycine and 0.9% gabapentin in 2% HPMC viscous eye drops in C57Bl/6 J mice.
2-phenylglycine (FIG. 28) and gabapentin (FIG. 29) were not as efficacious as pregabalin although they both had maximum IOP reductions of −8% and areas under the curve of −14% hr.

[2] = cited from earlier work
IOP [3] = experiment: IOP lowering by pregabalin HPMC eye drops in rabbits; assay type: in vivo; conditions: 0.9% pregabalin in HPMC eye drops, Dutch belted rabbits
Source text: FIG. 5: Pregabalin (0.9%) suspended in hydroxypropyl methylcellulose (HPMC) lowers IOP by 23% in Dutch belted rabbits (n=5).
(§1) It is also modestly present in the CM. Based upon these collective data, it appears that CACNA2D1 regulates IOP (FIG. 3). Pregabalin, or other gabapentinoid drugs, binds to the CACNA2D1 subunit of the calcium channel. The binding of the drug mitigates the flux of calcium through the α1 pore of the calcium channel, reducing the level of intracellular calcium. Since Cacna2d1 modulates IOP, pregabalin, a gabapentinoid drug with high specificity for CACNA2D1, was evaluated for its ability to affect IOP. […] The 1.2% pregabalin eye drops extended the duration of the IOP-lowering effect of pregabalin above that obtained with 0.6% pregabalin. Because there was no significant difference in the percent reduction of IOP between 0.9 and 1.2% pregabalin, we selected 0.9% as the minimal concentration required to produce the maximum reduction in IOP. Expanding this analysis to an additional species, we observed a similar IOP-lowering response (22.1±2.8%) in Dutch belted rabbits after instillation of 0.9% pregabalin eye drops (FIG. 5).

IOP [4] = experiment: IOP lowering by pregabalin HPMC eye drops in mice (dose response); assay type: in vivo, B6 mice
Source text: 0.9% is the minimum concentration that gives maximum effect (n=5).
as §1

SMILES	area under the curve (IOP [1])	maximum IOP reduction (IOP [1])	solubility in water [2]	time at which IOP returned to baseline (IOP [1])	IOP-lowering response (IOP reduction) (IOP [3])	IOP-lowering response (IOP reduction) (IOP [3]; listed as pregabalin)	IOP-lowering effect compared to control (IOP [4]; drops containing 0.3% pregabalin suspended in HPMC, topical, B6 mice)	IOP reduction, dose dependence (IOP [4]; pregabalin 0.3-1.2% suspended in HPMC, eye drops, mice)	minimal concentration required to produce the maximum reduction in IOP (IOP [4]; pregabalin in HPMC eye drops, B6 mice, plateau, no significant difference 0.9 vs 1.2%)
NCC1(CC(=O)O)CCCCC1 [gabapentin]	−14 % hr	−8%							
NC(C(=O)O)c1ccccc1 (stereo not shown) [2-phenylglycine]	−14 % hr	−8%							
NC(=O)c1ncn([C@@H]2O[C@H](CO)[C@@H](O)[C@H]2O)n1 [Ribavirin, 113-D-ribofuranosyl-1H-1,2,4-triazole-3-carboxamide]			freely soluble in water						
CC(C)C[C@H](CN)CC(=O)O [Pregabalin, pregabalin]	65 % hr	17.3%		≤ 6 h	23%	22.1±2.8%	no IOP-lowering effect	dose-dependent manner	0.9%
